The values below come from patent US5118678A, “Carbamates of rapamycin” (American Home Products Corporation, priority 1991, dated 1992).

Assay [1] relates to popliteal lymph node, mixed lymphocyte reaction. Kind of assay: popliteal lymph node (PLN) test procedure (in vivo mixed lymphocyte reaction). Further details: species or system C3H mice (recipients), BALB/c donors. The note with it: for PLN (ratio): p.o. daily Day 0 to Day 4, rapamycin = 1.00. The procedure: (§1) Immunosuppressive activity was evaluated in an in vitro standard pharmacological test procedure to measure lymphocyte proliferation (LAF) and in two in vivo standard pharmacological test procedures. The first in vivo procedure was a popliteal lymph node (PLN) test procedure which measured the effect of compounds of this invention on a mixed lymphocyte reaction and the second in vivo procedure evaluated the survival time of a pinch skin graft.
A mixed lymphocyte reaction (MLR) occurs when lymphoid cells from genetically distinct animals are combined in tissue culture. Each stimulates the other to undergo blast transformation which results in increased DNA synthesis that can be quantified by the incorporation of tritiated thymidine. Since stimulating a MLR is a function of disparity at Major Histocompatibility antigens, an in vivo popliteal lymph node (PLN) test procedure closely correlates to host vs. graft disease. Briefly, irradiated spleen cells from BALB/c donors are injected into the right hind foot pad of recipient C3H mice. The drug is given daily, p.o. from Day 0 to Day 4. On Day 3 and Day 4, tritiated thymidine is given i.p., b.i.d. On Day 5, the hind popliteal lymph nodes are removed and dissolved, and radioactivity counted. The corresponding left PLN serves as the control for the PLN from the injected hind foot. Percent suppression is calculated using the non-drug treated animals as allogenic control. […] Results are expressed by the following ratio: [formula]

Assay [2] has as its system pinch skin graft from male DBA/2 donors transplanted to male BALB/c recipients. Kind of assay: survival time of pinch skin graft. The format is in vivo, DBA/2 donors (mice). The note with it: intraperitoneally; mean ± S.D.; untreated grafts typically rejected within 6-7 days. On the procedure: as §1
The second in vivo test procedure is designed to determine the survival time of pinch skin graft from male DBA/2 donors transplanted to male BALB/c recipients. The method is adapted from Billingham R. E. and Medawar P. B., J. Exp. Biol. 28:385-402, (1951). Briefly, a pinch skin graft from the donor is grafted on the dorsum of the recipient as a homograft, and an autograft is used as control in the same region. […] Untreated recipients serve as rejection control. The graft is monitored daily and observations are recorded until the graft becomes dry and forms a blackened scab. This is considered as the rejection day. The mean graft survival time (number of days ±S.D.) of the drug treatment group is compared with the control group.

Assay [3] has as its system cells from the thymus of normal BALB/c mice (lymphocyte proliferation). Kind of assay: comitogen-induced thymocyte proliferation procedure (LAF). The format is cell-based. The note with it: Mus musculus; for IC50: read-out: LAF IC50. On the procedure:
as §1
Briefly, cells from the thymus of normal BALB/c mice are cultured for 72 hours with PHA and IL-1 and pulsed with tritiated thymidine during the last six hours. […] Cells are harvested and incorporated radioactivity is determined. Inhibition of lymphoproliferation is assessed as percent change in counts per minute from non-drug treated controls. The results are expressed as an IC50. [formula]

The conditions of assay [4]: FASEB 1989; Lancet 1978; cited from earlier work.
The test system of assay [5] is experimental allergic encephalomyelitis model, a model for multiple sclerosis. The following applies: R. Martel et al. 1977; cited from earlier work.
For assay [6], the system named is IgE-like antibodies. The note with it: R. Martel et al. 1977; cited from earlier work.
The mark [7] stands for this setting: thymocytes cultured 72 h with PHA and IL-1, tritiated thymidine incorporation, vs non-drug treated controls.

Like-named read-outs stand apart in the source and are kept apart here.

As to `CO[C@H]1C[C@@H]2CC[C@@H](C)[C@@](O)(O2)C(=O)C(=O)N2CCCC[C@H]2C(=O)O[C@H]([C@H](C)C[C@@H]2CC[C@@H](OC(=O)Nc3ccc(F)cc3)[C@H](OC)C2)CC(=O)[C@H](C)/C=C(\C)[C@@H](O)[C@@H](OC)C(=O)[C@H](C)C[C@H](C)/C=C/C=C/C=C/1C` [Example 1, Rapamycin 42-ester with (4-fluorophenyl)carbamic acid], the “PLN (ratio)” value in assay [1] was found to be 0.71 ratio. Besides, the “Skin Graft (mean graft survival time, days + SD)” value in assay [2] was 8.5 ± 1.6 days. The IC50 (commonly the concentration that inhibits the measured activity by half) in assay [3] (setting [7]) was 8.6 nM.

For `CO[C@H]1C[C@@H]2CC[C@@H](C)[C@@](O)(O2)C(=O)C(=O)N2CCCC[C@H]2C(=O)O[C@H]([C@H](C)C[C@@H]2CC[C@@H](OC(=O)Nc3ccccc3)[C@H](OC)C2)CC(=O)[C@H](C)/C=C(\C)[C@@H](O)[C@@H](OC)C(=O)[C@H](C)C[C@H](C)/C=C/C=C/C=C/1C` [Example 2, Rapamycin 42-ester with phenylcarbamic acid], the “PLN (ratio)” value in assay [1] stood at 0.47 ratio. Besides, in assay [2], the “Skin Graft (mean graft survival time, days + SD)” value is 8.5 ± 1.2 days. For the same compound, the IC50 in assay [3] (setting [7]) came to 3.9 nM.

For the compound `CO[C@H]1C[C@@H]2CC[C@@H](C)[C@@](O)(O2)C(=O)C(=O)N2CCCC[C@H]2C(=O)O[C@H]([C@H](C)C[C@@H]2CC[C@@H](OC(=O)Nc3ccc(C(F)(F)F)cc3)[C@H](OC)C2)CC(=O)[C@H](C)/C=C(\C)[C@@H](OC(=O)Nc2ccc(C(F)(F)F)cc2)[C@@H](OC)C(=O)[C@H](C)C[C@H](C)/C=C/C=C/C=C/1C` [Example 3, Rapamycin-31,42-diester with [4-(trifluoromethyl)phenyl]carbamic acid], in assay [3] (setting [7]), the IC50 is above 1000 nM.

Turning to `CO[C@H]1C[C@@H]2CC[C@@H](C)[C@@](O)(O2)C(=O)C(=O)N2CCCC[C@H]2C(=O)O[C@H]([C@H](C)C[C@@H]2CC[C@@H](OC(=O)Nc3ccc(C(F)(F)F)cc3)[C@H](OC)C2)CC(=O)[C@H](C)/C=C(\C)[C@@H](O)[C@@H](OC)C(=O)[C@H](C)C[C@H](C)/C=C/C=C/C=C/1C` [Example 4, Rapamycin-42-ester with [4-(trifluoromethyl)phenyl]carbamic acid], in assay [1], the “PLN (ratio)” value is 0.90 ratio. The IC50 in assay [3] (setting [7]) turned out to be 57.9 nM.

Take `CO[C@H]1C[C@@H]2CC[C@@H](C)[C@@](O)(O2)C(=O)C(=O)N2CCCC[C@H]2C(=O)O[C@H]([C@H](C)C[C@@H]2CC[C@@H](OC(=O)Nc3ccc([N+](=O)[O-])cc3)[C@H](OC)C2)CC(=O)[C@H](C)/C=C(\C)[C@@H](OC(=O)Nc2ccc([N+](=O)[O-])cc2)[C@@H](OC)C(=O)[C@H](C)C[C@H](C)/C=C/C=C/C=C/1C` [Example 5, Rapamycin-31,42-diester with (4-nitrophenyl)carbamic acid]: in assay [3] (read-out: LAF percent inhibition), the inhibition – broadly, the change of the read-out against control, counted positive when it falls – at 0.1 µM is 3%.

As to `CO[C@H]1C[C@@H]2CC[C@@H](C)[C@@](O)(O2)C(=O)C(=O)N2CCCC[C@H]2C(=O)O[C@H]([C@H](C)C[C@@H]2CC[C@@H](OC(=O)Nc3ccc([N+](=O)[O-])cc3)[C@H](OC)C2)CC(=O)[C@H](C)/C=C(\C)[C@@H](O)[C@@H](OC)C(=O)[C@H](C)C[C@H](C)/C=C/C=C/C=C/1C` [Example 6, Rapamycin-42-ester with (4-nitrophenyl)carbamic acid], the “PLN (ratio)” value in assay [1] was 0.25 ratio. The “Skin Graft (mean graft survival time, days + SD)” value in assay [2] is on record as 8.3 ± 1.0 days. The IC50 in assay [3] (setting [7]) was determined as 10.4 nM.

Take `CO[C@H]1C[C@@H]2CC[C@@H](C)[C@@](O)(O2)C(=O)C(=O)N2CCCC[C@H]2C(=O)O[C@H]([C@H](C)C[C@@H]2CC[C@@H](OC(=O)Nc3ccc(C)cc3)[C@H](OC)C2)CC(=O)[C@H](C)/C=C(\C)[C@@H](O)[C@@H](OC)C(=O)[C@H](C)C[C@H](C)/C=C/C=C/C=C/1C` [Example 8, Rapamycin-42-ester with (4-methylphenyl)carbamic acid]: the “Skin Graft (mean graft survival time, days + SD)” value in assay [2] turned out to be 8.8 ± 1.3 days. In addition, the IC50 in assay [3] (setting [7]) came out at 7.4 nM.

On to `CO[C@H]1C[C@@H]2CC[C@@H](C)[C@@](O)(O2)C(=O)C(=O)N2CCCC[C@H]2C(=O)O[C@H]([C@H](C)C[C@@H]2CC[C@@H](OC(=O)Nc3ccc(F)cc3F)[C@H](OC)C2)CC(=O)[C@H](C)/C=C(\C)[C@@H](O)[C@@H](OC)C(=O)[C@H](C)C[C@H](C)/C=C/C=C/C=C/1C` [Example 9, Rapamycin-42-ester with (2,4-difluorophenyl)carbamic acid], for which the “PLN (ratio)” value in assay [1] is reported as 0.72 ratio. The “Skin Graft (mean graft survival time, days + SD)” value in assay [2] is on record as 8.0 ± 1.7 days. In assay [3] (setting [7]), the IC50 is 8.7 nM.

For `CO[C@H]1C[C@@H]2CC[C@@H](C)[C@@](O)(O2)C(=O)C(=O)N2CCCC[C@H]2C(=O)O[C@H]([C@H](C)C[C@@H]2CC[C@@H](OC(=O)Nc3ccc(F)cc3F)[C@H](OC)C2)CC(=O)[C@H](C)/C=C(\C)[C@@H](OC(=O)Nc2ccc(F)cc2F)[C@@H](OC)C(=O)[C@H](C)C[C@H](C)/C=C/C=C/C=C/1C` [Example 10, Rapamycin-31,42-diester with (2,4-difluorophenyl)carbamic acid], the IC50 in assay [3] (setting [7]) was above 1000 nM.

As for `CO[C@H]1C[C@@H]2CC[C@@H](C)[C@@](O)(O2)C(=O)C(=O)N2CCCC[C@H]2C(=O)O[C@H]([C@H](C)C[C@@H]2CC[C@@H](OC(=O)Nc3ccccc3)[C@H](OC)C2)CC(=O)[C@H](C)/C=C(\C)[C@@H](OC(=O)Nc2ccccc2)[C@@H](OC)C(=O)[C@H](C)C[C@H](C)/C=C/C=C/C=C/1C` [Example 11, Rapamycin-31,42-diester with phenylcarbamic acid], the IC50 in assay [3] (setting [7]) is above 1000 nM.

As for `CO[C@H]1C[C@@H]2CC[C@@H](C)[C@@](O)(O2)C(=O)C(=O)N2CCCC[C@H]2C(=O)O[C@H]([C@H](C)C[C@@H]2CC[C@@H](OC(=O)Nc3ccc(F)cc3)[C@H](OC)C2)CC(=O)[C@H](C)/C=C(\C)[C@@H](OC(=O)Nc2ccc(F)cc2)[C@@H](OC)C(=O)[C@H](C)C[C@H](C)/C=C/C=C/C=C/1C` [Example 12, Rapamycin-31,42-diester with (4-fluorophenyl)carbamic acid], the IC50 in assay [3] (setting [7]) was above 1000 nM.

`CO[C@H]1C[C@@H]2CC[C@@H](C)[C@@](O)(O2)C(=O)C(=O)N2CCCC[C@H]2C(=O)O[C@H]([C@H](C)C[C@@H]2CC[C@@H](O[Si](C)(C)C(C)(C)C)[C@H](OC)C2)CC(=O)[C@H](C)/C=C(\C)[C@@H](OC(=O)Nc2ccc(F)cc2F)[C@@H](OC)C(=O)[C@H](C)C[C@H](C)/C=C/C=C/C=C/1C` [Example 14, Rapamycin-42-tert-butyldimethylsilyl ether-31-ester with (2,4-difluorophenyl)carbamic acid]: the IC50 in assay [3] (72 h) is above 1000 nM.

Take `CO[C@H]1C[C@@H]2CC[C@@H](C)[C@@](O)(O2)C(=O)C(=O)N2CCCC[C@H]2C(=O)O[C@H]([C@H](C)C[C@@H]2CC[C@@H](O)[C@H](OC)C2)CC(=O)[C@H](C)/C=C(\C)[C@@H](OC(=O)Nc2ccc(F)cc2F)[C@@H](OC)C(=O)[C@H](C)C[C@H](C)/C=C/C=C/C=C/1C` [Example 15, Rapamycin-31-ester with (2,4-difluorophenyl)carbamic acid]: the IC50 in assay [3] (setting [7]) was above 1000 nM.

Take `C=CC[C@@H]1/C=C(\C)C[C@H](C)C[C@H](OC)[C@H]2O[C@@](O)(C(=O)C(=O)N3CCCC[C@H]3C(=O)O[C@H](/C(C)=C/[C@@H]3CC[C@@H](O)[C@H](OC)C3)[C@H](C)[C@@H](O)CC1=O)[C@H](C)C[C@@H]2OC` [FK-506]: in assay [4], the immunosuppressive effects entry was “effective as immunosuppressive agents”.

In the case of `CO[C@H]1C[C@@H]2CC[C@@H](C)[C@@](O)(O2)C(=O)C(=O)N2CCCC[C@H]2C(=O)O[C@H]([C@H](C)C[C@@H]2CC[C@@H](O)[C@H](OC)C2)CC(=O)[C@H](C)/C=C(\C)[C@@H](O)[C@@H](OC)C(=O)[C@H](C)C[C@H](C)/C=C/C=C/C=C/1C` [Rapamycin], in assay [1] (6 mg/kg, p.o., vs non-drug treated animals as allogenic control), the “percent suppression (PLN)” value is listed as 86%. Further, the “PLN (ratio)” value in assay [1] worked out at 1.00 ratio. In assay [2], the “Skin Graft (mean graft survival time, days + SD)” value is recorded as 12.0 ± 1.7 days. In assay [5], the “effect in experimental allergic encephalomyelitis model” value is listed as “effective in the experimental allergic encephalomyelitis model”. For the same compound, in assay [4], the immunosuppressive effects result is “immunosuppressive effects”. Also, in assay [6], the “inhibition of formation of IgE-like antibodies” value is reported as “effectively inhibited the formation of IgE-like antibodies”. Also, the IC50 in assay [3] (72 h) was 3.2 to 9.4 nM.
